{
  "source": "ChEMBL document CHEMBL1158147",
  "about": "“Ultraviolet-mediated cytotoxic activity of phenylheptatriyne from Bidens pilosa L” (J Nat Prod, 1979)",
  "key": {"Candida albicans [1]": {"system": "Candida albicans", "assay": "Phototoxicity against Candida albicans at 2.5 ug/disk after UV irradiation for 15 mins", "type": "functional", "details": "light or radiation study, 0.25 h, read-out: IZ"}, "DNA [2]": {"system": "DNA", "assay": "Photochemical activity against denatured calf thymus DNA at 10 ug in dark by hyperchromicity test; note: unit not given here", "type": "nucleic-acid assay", "details": "Bos taurus"}, "Rhodotorula mucilaginosa [3]": {"system": "Rhodotorula mucilaginosa", "assay": "Phototoxicity against Rhodotorula rubra Y96 at 5 ug/disk in dark", "type": "functional, organism-based"}, "Candida albicans [4]": {"system": "Candida albicans", "assay": "Phototoxicity against Candida albicans at 5 ug/disk in presence of cool-white fluorescent light", "type": "functional, organism-based"}, "Torula": {"system": "Torula", "assay": "Phototoxicity against Torula sp. at 5 ug/disk in presence of cool-white fluorescent light", "type": "functional, organism-based"}, "Paraphyton cookei [5]": {"system": "Paraphyton cookei", "assay": "Phototoxicity against Microsporum cookei at 5 ug/disk in presence of long wave UV light", "type": "functional, organism-based"}, "Kocuria rosea": {"system": "Kocuria rosea", "assay": "Phototoxicity against Micrococcus roseus UBC 289 at 5 ug/disk in presence of long wave UV light", "type": "functional, organism-based"}, "Saccharomyces cerevisiae [6]": {"system": "Saccharomyces cerevisiae", "assay": "Phototoxicity against Saccharomyces cerevisiae at 2.5 ug/disk after UV irradiation for 30 mins", "type": "functional, organism-based"}, "DNA [7]": {"system": "DNA", "assay": "Photochemical activity against denatured calf thymus DNA at 10 ug after UV irradiation with 16.00 Joules/cm'2 for 180 mins by hyperchromicity test", "type": "nucleic-acid assay", "details": "Bos taurus"}, "Enterococcus faecalis [8]": {"system": "Enterococcus faecalis", "assay": "Phototoxicity against Streptococcus fecalis at 5 ug/disk in dark", "type": "functional, organism-based"}, "DNA [9]": {"system": "DNA", "assay": "Photochemical activity against denatured calf thymus DNA at in dark after 180 mins by hyperchromicity test", "type": "nucleic-acid assay", "details": "Bos taurus"}, "[10]": {"system": "Trichophyton mentagrophytes", "assay": "Phototoxicity against Trichophyton mentagrophytes at 5 ug/disk in presence of long wave UV light", "type": "functional, organism-based"}, "Paraphyton cookei [11]": {"system": "Paraphyton cookei", "assay": "Phototoxicity against Microsporum cookei at 5 ug/disk in dark", "type": "functional, organism-based"}, "Sporobolomyces": {"system": "Sporobolomyces", "assay": "Phototoxicity against Sporobolomyces sp. Y138 at 5 ug/disk in presence of long wave UV light", "type": "functional, organism-based"}, "Escherichia coli": {"system": "Escherichia coli", "assay": "Phototoxicity against Escherichia coli at 5 ug/disk in presence of cool-white fluorescent light", "type": "functional, organism-based"}, "Bacillus subtilis": {"system": "Bacillus subtilis", "assay": "Phototoxicity against Bacillus subtilis at 5 ug/disk in presence of cool-white fluorescent light", "type": "functional, organism-based"}, "Pseudomonas fluorescens": {"system": "Pseudomonas fluorescens", "assay": "Phototoxicity against Pseudomonas fluorescens at 5 ug/disk in presence of long wave UV light", "type": "functional, organism-based"}, "Enterococcus faecalis [12]": {"system": "Enterococcus faecalis", "assay": "Phototoxicity against Streptococcus faecalis at 5 ug/disk in presence of long wave UV light", "type": "functional, organism-based"}, "Nannizzia gypsea [13]": {"system": "Nannizzia gypsea", "assay": "Phototoxicity against Microsporum gypseum at 5 ug/disk in presence of cool-white fluorescent light", "type": "functional, organism-based"}, "[14]": {"system": "Trichophyton mentagrophytes", "assay": "Phototoxicity against Trichophyton mentagrophytes at 5 ug/disk in dark", "type": "functional, organism-based"}, "Nannizzia gypsea [15]": {"system": "Nannizzia gypsea", "assay": "Phototoxicity against Microsporum gypseum at 5 ug/disk in dark", "type": "functional, organism-based"}, "Fusarium sp.": {"system": "Fusarium sp.", "assay": "Phototoxicity against Fusarium sp. at 5 ug/disk in presence of long wave UV light", "type": "functional, organism-based"}, "Saccharomyces cerevisiae [16]": {"system": "Saccharomyces cerevisiae", "assay": "Effect on Saccharomyces cerevisiae assessed as viable cell count at 10 ug/ml in petroleum ether after 2.67 Joules/cm'2 UV irradiation for 30 mins", "type": "functional"}, "Saccharomyces cerevisiae [17]": {"system": "Saccharomyces cerevisiae", "assay": "Phototoxicity against Saccharomyces cerevisiae at 5 ug/disk in presence of cool-white fluorescent light", "type": "functional, organism-based"}, "Rhodotorula mucilaginosa [18]": {"system": "Rhodotorula mucilaginosa", "assay": "Phototoxicity against Rhodotorula rubra Y96 at 5 ug/disk in presence of long wave UV light", "type": "functional, organism-based"}, "Saccharomyces cerevisiae [19]": {"system": "Saccharomyces cerevisiae", "assay": "Phototoxicity against Saccharomyces cerevisiae at 5 ug/disk in presence of long wave UV light", "type": "functional, organism-based"}, "Candida albicans [20]": {"system": "Candida albicans", "assay": "Phototoxicity against Candida albicans at 2.5 ug/disk after UV irradiation for 180 mins", "type": "functional, organism-based"}},
  "note": "Calls of active or inactive are those of the source. No cut-off for these calls is given here.",
  "data": [
    {"compound": "CC#CC#CC#Cc1ccccc1", "note": "[PHENYLHEPTATRIYNE]", "values": [
      {"measurement": "zone of inhibition at 2.5 µg/disc", "setting": "Candida albicans [1]", "value": 11, "unit": "mm"},
      {"measurement": "Activity", "setting": "DNA [2]", "value": 0.17},
      {"measurement": "Activity", "setting": "Rhodotorula mucilaginosa [3]", "value": "inactive"},
      {"measurement": "Activity", "setting": "Candida albicans [4]", "value": "Active"},
      {"measurement": "Activity", "setting": "Torula", "value": "inactive"},
      {"measurement": "Activity", "setting": "Paraphyton cookei [5]", "value": "Active"},
      {"measurement": "Activity", "setting": "Kocuria rosea", "value": "Active"},
      {"measurement": "Activity", "setting": "Saccharomyces cerevisiae [6]", "value": "inactive"},
      {"measurement": "Activity", "setting": "DNA [7]", "value": 0},
      {"measurement": "Activity", "setting": "Enterococcus faecalis [8]", "value": "inactive"},
      {"measurement": "Activity", "setting": "DNA [9]", "value": 0.18},
      {"measurement": "Activity", "setting": "[10]", "value": "Active"},
      {"measurement": "Activity", "setting": "Paraphyton cookei [11]", "value": "inactive"},
      {"measurement": "Activity", "setting": "Sporobolomyces", "value": "Active"},
      {"measurement": "Activity", "setting": "Escherichia coli", "value": "inactive"},
      {"measurement": "Activity", "setting": "Bacillus subtilis", "value": "Active"},
      {"measurement": "Activity", "setting": "Pseudomonas fluorescens", "value": "inactive"},
      {"measurement": "Activity", "setting": "Enterococcus faecalis [12]", "value": "Active"},
      {"measurement": "Activity", "setting": "Nannizzia gypsea [13]", "value": "Active"},
      {"measurement": "Activity", "setting": "[14]", "value": "inactive"},
      {"measurement": "Activity", "setting": "Nannizzia gypsea [15]", "value": "inactive"},
      {"measurement": "Activity", "setting": "Fusarium sp.", "value": "Active"},
      {"measurement": "Activity", "setting": "Saccharomyces cerevisiae [16]", "value": 0.02},
      {"measurement": "Activity", "setting": "Saccharomyces cerevisiae [17]", "value": "Active"},
      {"measurement": "Activity", "setting": "Rhodotorula mucilaginosa [18]", "value": "Active"},
      {"measurement": "Activity", "setting": "Saccharomyces cerevisiae [19]", "value": "Active"},
      {"measurement": "Activity", "setting": "Candida albicans [20]", "value": "inactive"}
    ]}
  ]
}
